The values that follow come from US20240010992A1, “COMPOSITIONS AND METHODS TO IMPROVE IPSC-EC FUNCTION” (Northwestem University, priority 2022, published 2024).

One data set deals with CD144 and CD31. Kind of data set: Immunostaining for CD144 and CD31 and morphology of iPSC-ECs. The settings on record: ACS1028 and Y6 iPSC-ECs. Format: cell-based, human. The method, then:
Immunostaining was performed by fixing cells in 4% paraformaldehyde for 15 minutes at room temperature and then washing with PBS. Cells were then permeabilized with 70% ice cold ethanol on ice and blocked with 0.5% BSA in PBS for 15 minutes at room temperature. Cells were then incubated overnight at 4° C. with the primary antibody in antibody dilution buffer (0.05% BSA in PBS) at the following concentrations: Nanog (Life Technologies PA1-097, 1:100), SSEA4 (Life Technologies 414000, 1:400), Sox2 (Life Technologies PA1-16968, 1:100), VE-cadherin/CD144 (Sigma V1514, 1:200), PECAM1/CD31 (Abcam ab187377, 1:100). The isotype control antibodies used in this study were mouse IgG1 (Abcam ab172730) and rabbit serum. Cells were washed with PBS and incubated with conjugated secondary antibodies at room temperature in the dark (Life Technologies, 1:300).

A further data set deals with ACS1028-derived ECs. Kind of data set: Mitophagy inducing drug experiment, cell number by total Hoechst signal. The conditions noted are these: all concentrations, by passage 1.
The test system of data set [1] is ACS1028-ECs. Kind of data set: Cell survival of purified iPSC-ECs by light microscopy cell counting / Trypan blue. Format: cell-based. The settings on record: for cell survival: serial passaging. The method, then:
There were three biological replicates for each group in each experiment, unless otherwise specified. For MitoTracker quantification, total fluorescence signal for the area was measured in Fiji and divided by the number of nuclei present. This was done for 5 fields of view (technical replicates) and averaged to generate a data point for a given biological replicate. For the DAF-FM reduction measurements for NO production, a given experimental condition was plated into 3 wells of a 96 well plate. For TEM analysis, each biological sample was imaged in a minimum of 5 locations. Three representative images from each condition were utilized for quantifying autolysosomes per high power field (HPF) in each of two separate experiments. For light microscopy images, cells were manually counted from three distinct areas of a given experimental condition on two separate occasions. All data wereanalyzed with one-way ANOVA with a post-hoc Tukey test in IBM SPSS Statistics for Macintosh, version 27 (IBM Corp., Armonk, N.Y., USA). A p value of <0.05 was considered significant, where * represent comparisons between the specified groups.
(§1) Experiments were conducted to determine whether inducing autophagy in iPSC-ECs overcomes the premature senescence phenomenon. […] Due to the loss of proliferating cells in the control culture, the experiment was terminated at passage 3.
(§2) To assess whether the effect of Rg2 on proliferation is mediated through autophagy, ACS1028-ECs was administered with 200 μM Rg2 and SBI-0206965 to block ULK1 kinase at varying concentrations. Cell survival was assessed by counting the number of cells per high power field by light microscopy, which diminished over serial passages in the DMSO-treated vehicle-control condition.

In data set [2] the test system is ACS1028-ECs. Kind of data set: Cell proliferation assay (EdU labeling) of iPSC-ECs over serial passages. The data set is classed as cell-based, human. The procedure:
Proliferating cells were labeled with EdU using the Invitrogen Click-iT microplate assay kit (Invitrogen C10214), without the use of the Amplex Ultra red step. Cells were labeled for 24 hours with 10 μM EdU or DMSO as a vehicle control. Cells were fixed and prepared according to the manufacturer's instructions, minus the Amplex Ultra red labeling. Hoechst 33342 was added at 5 μg/mL (Invitrogen H1399), and labeled cells were imaged on a Zeiss inverted fluorescence microscope. Four tiled images at 10× magnification were collected per each well of 3 biological replicates per condition and stitched together as a single image per well for analysis. EdU-labeled and total nuclei were counted in Fiji.
as §1

The test system of a further data set is LC3-II. Kind of data set: Western blotting of LC3-II (normalized to GAPDH) in ACS1028-EC lysate. Format: cell-based, human. The conditions noted are these: ACS1028-ECs. The method, then:
Western blotting was performed using a modified Novus Biological protocol (NB100-2220) with 10%, 12%, 14% or 4-20% gradient SDS-PAGE gels. Cells were collected and lysed with RIPA buffer plus PMSF protease inhibitor. Cell lysate was centrifuged at high speed for 10 minutes at 4° C., and the supernatant was transferred to a fresh tube. The total protein content was quantified with a Bradford assay, and a total of 20 ug of protein was mixed with Laemmli buffer (4% SDS, 5% 2-mercaptoethanol (BME), 20% glycerol, 0.004% bromophenol blue, 0.125 M Tris HCl, pH 6.8) and denatured for 10 minutes at 95° C. This was followed by wet transfer to PVDF immobilon membrane (Millipore IPFL00010) and blocked with Odyssey TBS blocking buffer (LiCor 927-50000). […] Bands were quantified and normalized by a ratio of LC3-II:GAPDH, rather than LC3-II:LC3-I as LC3-II is more sensitive in blotting and accurate observed alone.
as §2
(In general: A western blot detects proteins with antibodies after separation by electrophoresis.)

Another data set deals with SIRT1. Kind of data set: Western blotting, SIRT1 expression in iPSC-ECs. The data set is classed as cell-based. The settings on record: human iPSC-derived endothelial cells. The text has this:
(§3) Milk solution was removed, and membranes rinsed in TBST. […] ECL was applied for chemiluminescence. Imaging was done using Bio-Rad imager.

The test system of data set [3] is endothelial nitric oxide synthase. Put plainly: Western blotting, phosphorylation of endothelial nitric oxide synthase in iPSC-ECs. The data set is classed as cell-based. The settings on record: human iPSC-derived endothelial cells.
Text: as §3

The next data set relates to Parkin. Kind of data set: Western blotting, Parkin expression in iPSC-ECs. Format: cell-based, human. The settings on record: particularly under bafilomycin treated conditions.
Text: as §3

A further data set has as its system Drp1. Put plainly: Western blotting, phosphorylation of Drp1 in iPSC-ECs. Format: cell-based. The conditions noted are these: human iPSC-derived endothelial cells.
Text: as §3

The test system of a further data set is Opal. Kind of data set: Western blotting, Opal expression in iPSC-ECs. The data set is classed as cell-based. The settings on record: human iPSC-derived endothelial cells.
Text: as §3

The next data set deals with PKM2. Put plainly: Western blotting, phosphorylation of PKM2 in iPSC-ECs. The conditions noted are these: particularly under bafilomycin treated conditions. Format: cell-based, human.
Text: as §3

The next data set has as its system PDH. Kind of data set: Western blotting, PDH expression in iPSC-ECs. The conditions noted are these: particularly under bafilomycin treated conditions. Format: cell-based, human.
Text: as §3

In a further data set the test system is Y6-derived ECs. Put plainly: Mitophagy inducing drug experiment, cell number by total Hoechst signal. The conditions noted are these: all concentrations, by passage 1.

Entries after “also recorded” stand apart in the source; their conditions may differ. Where two headings read alike, the source gives them in different places.

Description for ACS1028-derived ECs: (§4) The effect of increasing mitophagy in iPSC-ECs was evaluated.
Description for Y6-derived ECs: as §4
Description for cleaved caspase 3: Utilizing 8%, 10%, and 14% polyacrylamide gels, samples were run at 150V for 1 to 2 hours in SDS-Tris-Glycine buffer. Gels were then transferred to nitrocellulose membrane for two and half hours at 0.35 Amps in Tris-Glycine transfer buffer. After transfer nitrocellulose membranes were blocked in 10% milk/TBST solution for 1 hr. Milk solution was removed, and membranes rinsed in TBST. Blocked membranes were cut and placed in primary antibody solution (5% BSA/TBST) overnight. After incubation with primary antibody incubation membranes were washed with TBST for 5 mins 3X. Secondary antibody incubation (Rabbit 1:1000) in 5% BSA solution was applied for 2 hrs. After secondary antibody incubation membranes were washed with TBST for 15 mins 3X. ECL was applied for chemiluminescence. Imaging was done using Bio-Rad imager.

With `N#CC(C#N)=NNc1ccc(OC(F)(F)F)cc1` [FCCP], the “CD144 and CD31 expression and typical morphology (mature endothelial cell phenotype)” value in the data set with CD144 and CD31 was “accelerated loss of mature endothelial cell phenotype”. Besides, the “cell loss / cell survival (total Hoechst signal)” value (“cell loss / cell survival” for short) in the data set on ACS1028-derived ECs was “high levels of cell loss”.

As for `N=c1c2c(-c3ccccc3)c(-c3ccccc3)n(Cc3ccccc3)c2ncn1[C@H]1CC[C@H](O)CC1` [ML246], in the data set on ACS1028-ECs [1], the “presence of cells by light microscopy” value is “no cells visible” and the “residual cells, Trypan blue” value was “no residual cells”.

`CC(C)=CCC[C@](C)(O)[C@H]1CC[C@]2(C)[C@@H]1[C@H](O)C[C@@H]1[C@@]3(C)CC[C@H](O)C(C)(C)[C@@H]3[C@@H](O[C@@H]3O[C@H](CO)[C@@H](O)[C@H](O)[C@H]3O[C@@H]3O[C@@H](C)[C@H](O)[C@@H](O)[C@H]3O)C[C@]12C` [Rg2]: the “persistence of the proliferation benefit over serial passages” value in the data set with ACS1028-ECs [2] (serial passages, experiment terminated at passage 3) is “persisted through passage 3; also recorded: sustained through passage 3”. In addition, the “proliferation (EdU labeled cells)” value with ACS1028-ECs [2] (versus DMSO vehicle control and rapamycin, ML246, Antimycin A or oligomycin) is “increased rate of proliferation; also recorded: statistically significant improvement in proliferation”. Further, the cell survival result with ACS1028-ECs [1] (purified ACS1028-ECs) is “improved cell survival”. Further, the “LC3-II level by Western blotting” value with LC3-II (passage 3, Rg2 treated vs DMSO) is “increase in LC3-II level”. Moreover, the SIRT1 expression result in the data set on SIRT1 is listed as “increased expression of longevity protein SIRT1 in a dose-dependent manner”. Besides, the “phosphorylation (activity) of endothelial nitric oxide synthase” value in data set [3] was “increased phosphorylation”. For the same compound, the “Parkin (mitophagy marker) expression” value in the data set with Parkin is on record as “increased Parkin expression; also recorded: slightly increases”. In the data set with Drp1, the “phosphorylation of Drp1 (mitochondrial fission)” value was “increased phosphorylation of Drp1”. Besides, the “expression of Opal (mitochondrial fusion)” value in the data set on Opal is on record as “increased”. Moreover, the “phosphorylation of PKM2” value with PKM2 is listed as “increased phosphorylation of PKM2”. Further, the “expression of PDH” value in the data set on PDH is given as “increased”. Besides, in the data set on cleaved caspase 3, the “apoptosis (cleaved caspase 3)” value is “no increase in cleaved caspase 3”.

Consider `CNC(=O)c1ccccc1Oc1nc(Nc2cc(OC)c(OC)c(OC)c2)ncc1Br` [SBI-0206965], for which, in the data set with ACS1028-ECs [1], the “presence of cells by light microscopy” value is recorded as “no cells visible” and the “residual cells, Trypan blue” value was “no residual cells”. Further, the “cell survival (cells per high power field), co-treatment with Rg2” value in the data set on ACS1028-ECs [1] (10 μM (highest concentration) in the presence of 200 μM Rg2, passages 2 and 3) is reported as “almost no surviving cells”. The cell survival result in the data set on ACS1028-ECs [1] (purified ACS1028-ECs) was “no cells surviving to passage 1”. The “cell survival (cells per high power field), co-treatment with Rg2” value in the data set on ACS1028-ECs [1] (varying concentrations of SBI-0206965 in the presence of 200 μM Rg2, survival to passage 3) is given as “fewer cells surviving when treated with higher concentrations; also recorded: statistically significant reduction in cell survival in a dose-dependent manner”. The “LC3-II level by Western blotting, co-treatment with Rg2” value in the data set with LC3-II (passage 3, SBI-0206965 at any concentration added to Rg2) is “reduced”.

On to `CC[C@H]1/C=C/C=C/C[C@@H](C)[C@H](O)[C@@](C)(O)C(=O)[C@@H](C)[C@H](O)[C@@H](C)C(=O)[C@@H](C)[C@H](O)[C@@H](C)/C=C/C(=O)O[C@@H]2[C@H](C)[C@H](CC1)O[C@]1(CC[C@H](C)[C@H](C[C@@H](C)O)O1)[C@H]2C` [oligomycin], for which the “CD144 and CD31 expression and typical morphology (mature endothelial cell phenotype)” value in the data set on CD144 and CD31 is “accelerated the loss of CD144 and CD31 as well as typical morphology”. The “cell loss / cell survival” value in the data set on ACS1028-derived ECs is “high levels of cell loss; also recorded: decreased cell survival”. Moreover, in the data set on Y6-derived ECs, the “cell survival (total Hoechst signal)” value is given as “decreased cell survival”.

In the case of `Oc1ccc(C=Cc2cc(O)cc(O)c2)cc1` [resveratrol], in the data set on ACS1028-ECs [1], the “presence of cells by light microscopy” value was “no cells visible” and the “residual cells, Trypan blue” value is recorded as “no residual cells”. Moreover, the cell survival entry in the data set on ACS1028-ECs [1] (purified ACS1028-ECs) is listed as “no cells surviving to passage 1”.

In the case of `NCCCCNCCCN` [spermidine], the “residual cells, Trypan blue” value with ACS1028-ECs [1] (purified ACS1028-ECs incubated overnight with Trypan blue) was “no residual cells”. The “presence of cells by light microscopy” value in the data set with ACS1028-ECs [1] (purified ACS1028-ECs, versus control and DMSO-vehicle control) is “no cells visible”.

For Antimycin A, the “CD144 and CD31 expression and typical morphology (mature endothelial cell phenotype)” value in the data set with CD144 and CD31 is “accelerated the loss of CD144 and CD31 as well as typical morphology”. Besides, the “cell loss / cell survival” value in the data set on ACS1028-derived ECs is given as “high levels of cell loss; also recorded: decreased cell survival”. The “cell survival (total Hoechst signal)” value in the data set on Y6-derived ECs is listed as “decreased cell survival”.
